This is an account of results in patent US8460635B2, “Fenretinide derivatives and uses thereof as therapeutic, diagnostic and imaging agents” (Albert Einstein College of Medicine of Yeshiva University, priority 2008, dated 2013).

What all share (type): cell-based
In series [1] the test system is MON (INI1−/−) rhabdoid tumor cells. Briefly: MTS survival assay of rhabdoid tumor cells. Particulars: for cytotoxic activity against rhabdoid tumor cells (in words): compared with 4-HPR. The method, then:
FIG. 1A-1D. Effect of 4HPR derivatives with phenyl group substitutions on survival of rhabdoid tumors cells. MON (INI1−/−) cells were treated with serial dilutions of the 4HPR, ATRA and 4HPR derivatives for three days. Survival assay was carried out as described using MTS assay kit. Percentage of cell survival plotted against concentration of drugs (Mean+/−SEM).
FIG. 2. Effect of fenretinide peptidomimitic derivatives on the survival of rhabdoid tumor cells in culture. % survival of MON rhabdoid tumor cells treated with fenretinide derivatives, when compared to the vehicle treated control. The data in all the panels represent the average of triplicate experiments, and the standard error is indicated.
The rhabdoid cell line (MON) (88) was cultured in RPMI 1640 supplemented with 10% fetal bovine serum, 2 mM L-glutamine, 50 U/ml penicillin, and 50 μg/ml streptomycin at 37° C. with 5% CO2 and 95% humidified air. 4-(Fenretinide) was either obtained from NCI or synthesized in house. Fenretinide or its synthetic derivatives were reconstituted in 100% ethanol as a 10 mM solution and the aliquots were stored frozen at −80° C., protected from light. Working solutions (50 μM or 200 μM) and serial dilutions were prepared by diluting the stock solution with culture medium, such that the concentration of ethanol was <2% in all dilutions.
Aliquots of 8×10^3 MON cells were plated in 96-well microdilution plates. Twenty four hours after seeding, the cells were treated with serial dilutions of each drug. Following incubation for 24 or more hours, each well was stained with 20 μl of MTS [3-(4,5-dimethylthiazol-2-yl)-5-(3-carboxymethoxyphenyl)-2-(4-sulfophenyl)-2H-tetrazolium, inner salt] that was mixed 20:1 V/V in PMS (phenazine methosulphate, CellTiter 96® AQueous Non-Radioactive Cell Proliferation Assay Kit, Promega, Madison, Wis.) added to each of the well in the microtiter plate containing 100 μl of culture medium. After 4 h incubation, the plates were analyzed by an ELISA plate reader (Wallac Victor, 1420 Multilabel Counter, Perkin Elmer) at 490 nm wave-length. Cell plating, drug treatment and survival assay were performed using the epMotion 5070 automated liquid handling robotic system (Eppendorff, Westbury, N.Y.).
Statistical analysis of the data was carried out using GraphPad Prism (San Diego, Calif.). Relative IC50 values were calculated using the nonlinear regression curve fit with sigmoidal dose response (variable slope) function. Relative IC50 is defined as the concentration giving a response exactly half way between the fitted top and bottom of the survival curve when graphed as percent inhibition versus the log of the concentration of compound. The fitting error, or standard error describes the error involved in fitting the curve.

In another series the test system is MON cells. Briefly: FACS analysis of cell cycle and sub-G1 (apoptosis). To be noted: 2 days. How it is done:
FIG. 3A-3B. Induction of cell cycle arrest and apoptosis by halogen derivatives of fenretinide. A. Cell cycle profile determined by FACS analysis of MON cells treated with either 5 or 10 μM concentrations of fenretinide and its derivatives for 2 days. Percentage of cells at various stages of cell cycle (G1, S and G2) is indicated. B. Percentage of MON cells at sub-G1 when exposed for 2 days to fenretinide and its derivatives.
FIG. 4A-4B. Induction of cell cycle arrest and apoptosis by peptidomimetic derivatives of fenretinide. A. Cell cycle profile determined by FACS analysis of MON cells treated with either 5 or 10 μM concentrations of fenretinide and its derivatives for 2 days. Percentage of cells at various stages of cell cycle (G1, S and G2) is indicated. B. Percentage of MON cells at sub-G1 when exposed for 2 days to fenretinide and its derivatives.
(§1) The effects of fenretinide, halogen substitutes, and peptidomimetic derivatives on cell cycle regulation and apoptosis were tested by using: i) cell survival assay (MTS); ii) FACS analysis; and iii) immunoblot analysis to determine the effect on Cyclin D1.
(In general: A flow cytometer gives signals particle by particle.)

In the next series the test system is Cyclin D1. Briefly: Immunoblot analysis of Cyclin D1 expression. Particulars: for Repression of Cyclin D1: biomarker expression, Table 3. How it is done:
FIG. 5A-5B. Effect of fenretinide, its derivatives and peptidomimetic compounds on expression of Cyclin D1. Immunoblot analysis to determine the effect of fenretinide and its halogen substitutes (A) and peptidomimetic compounds (B). GAPDH is a loading control.
This assay was performed using a routine laboratory protocol as previously described using chemiluminescence detection method (30). The following antibodies were used: polyclonal α-cyclin D1 Ab-3 (NeoMarkers, Cat# RB-010-P0), monoclonal α-cyclin D1 DCS-6 (NeoMarkers, Cat# MS-210-P1), α-β-Actin (Sigma Cat# A5441) and α-Tubulin-α (Sigma, Cat # T5168).
as §1
A general note: In western blotting, separated proteins are transferred to a membrane and probed.

Series [2] has as its system MON (INI1−/−) rhabdoid tumor cells. Briefly: MTS survival assay of rhabdoid tumor cells. Particulars: charcoal adsorbed serum.
The mark [3] stands for this setting: 72 h, MON cells, three days, compounds in FIG. 1A-1D, concentration of drug required to kill 50% of cells, read-out: IC50.
Where [4] appears, read: MON rhabdoid cells, survival assay, values in text, read-out: IC50.
Where [5] appears, read: regular FBS, read-out: IC50 (in regular FBS).
The mark [6] stands for this setting: MON cells, three days, compounds in FIG. 1A-1D, concentration of drug required to kill 50% of cells, read-out: IC50.

“Also recorded” adds a separate entry of the source. Read-outs that look alike come from different tables or passages of the source. Bounds are passed on as bounds.

As a reminder, the IC50 is the concentration that inhibits the measured activity by half. As to `CC1=C(/C=C/C(C)=C/C=C/C(C)=C/C(=O)Nc2ccc(O)cc2O)C(C)(C)CCC1` [5(n), (2E,4E,6E,8E)-[3,7-Dimethyl-9-(2,6,6-trimethyl-1-cyclohexenyl)-nona-2,4,6,8-tetraenoylamino]-(2,4-dihydroxy)phenylamide], the IC50 in series [1] (setting [3]) came to 8 µM. Besides, in series [1] (setting [4]), the half-maximal inhibitory concentration (IC50) was 8 µM. In series [1], the “cytotoxic activity against rhabdoid tumor cells (in words)” value (“cytotoxic activity” for short) is “retains 4-HPR activity”. Moreover, the IC50 in series [1] (setting [5]) stood at 8 µM. For the same compound, in the series on MON cells (5 μM, Table 5), the “% G1” value is listed as 85.42%, the “% G2” value is 8.48%, the “% S” value is on record as 6.11% and the “SubG1 (percentage of MON cells at sub-G1)” value is reported as 25.81%. In the series on MON cells (10 μM, Table 5), the “% G1” value is on record as 88.30%, the “% G2” value is 6.05%, the “% S” value was found to be 5.65% and the “SubG1 (percentage of MON cells at sub-G1)” value stood at 43.53%.

With `CC1=C(/C=C/C(C)=C/C=C/C(C)=C/C(=O)Nc2ccc(O)c(F)c2)C(C)(C)CCC1` [5(h), (2E,4E,6E,8E)-[3,7-Dimethyl-9-(2,6,6-trimethyl-1-cyclohexenyl)-nona-2,4,6,8-tetraenoylamino]-(3-fluoro,4-hydroxy)phenylamide], the IC50 in series [1] (setting [3]) came out at 8 µM. Besides, in series [1] (setting [4]), the IC50 is 8 µM. Besides, the IC50 in series [1] (setting [5]) is 8 µM. Besides, in the series on MON cells (5 μM, Table 5), the “% G1” value came out at 87.23%, the “% G2” value was determined as 7.10%, the “% S” value is reported as 5.67% and the “SubG1 (percentage of MON cells at sub-G1)” value came out at 38.78%. Moreover, in the series with MON cells (10 μM, Table 5), the “% G1” value is 87.22%, the “% G2” value is reported as 6.97%, the “% S” value is 5.81% and the “SubG1 (percentage of MON cells at sub-G1)” value is 50.79%. In the series with Cyclin D1, the “Repression of Cyclin D1” value is “Yes”.

Consider “(2E,4E,6E,8E)-[3,7-Dimethyl-9-(2,6,6-trimethyl-1-cyclohexenyl)-nona-2,4,6,8-tetraenoylamino]-(4-bromo)phenylamide [5(c)]”, for which, in series [1] (setting [6]), the IC50 amounted to 150 µM.

As to `CC1=C(/C=C/C(C)=C/C=C/C(C)=C/C(=O)Nc2ccc(O)c(Cl)c2)C(C)(C)CCC1` [5(i), (2E,4E,6E,8E)-[3,7-Dimethyl-9-(2,6,6-trimethyl-1-cyclohexenyl)-nona-2,4,6,8-tetraenoylamino]-(3-chloro, 4-hydroxy)phenylamide], the IC50 in series [1] (setting [3]) was found to be 12.5 µM; in series [1] (setting [4]) it was 10 µM; in series [1] (setting [5]), 10 µM; in series [2], 1.5 µM. Moreover, in the series with Cyclin D1, the “Repression of Cyclin D1” value was “Yes”.

As for `CC1=C(/C=C/C(C)=C/C=C/C(C)=C/C(=O)O)C(C)(C)CCC1` [ATRA, All-trans retinoic acid, reference compound], the IC50 was 100 µM in series [1] (setting [3]), 100 µM in series [1] (setting [4]), more than 50 µM in series [1] (setting [5]) and more than 15 µM in series [2]. In addition, the “cytotoxic activity” value in series [1] is “did not have appreciable cytotoxic activity; also recorded: did not exhibit activities against rhabdoid tumor cells”. The “% G1” value was found to be 82.64% in the series with MON cells (5 μM, Table 5); 82.64% in the series on MON cells (5 μM, Table 6); 82.08% in the series with MON cells (10 μM, Table 5); 82.08% in the series on MON cells (10 μM, Table 6). The “% G2” value in the series on MON cells (5 μM, Table 5) was determined as 11.04%; in the series on MON cells (5 μM, Table 6), 9.07%; in the series on MON cells (10 μM, Table 5) it was 11.21%; with MON cells (10 μM, Table 6) it was 8.18%. In addition, the “% S” value in the series on MON cells (5 μM, Table 5) was found to be 6.32%; in the series with MON cells (5 μM, Table 6), 8.58%; with MON cells (10 μM, Table 5), 6.71%; in the series with MON cells (10 μM, Table 6), 8.51%. Moreover, the “SubG1 (percentage of MON cells at sub-G1)” value in the series with MON cells (5 μM, Table 5) came out at 8.22%; in the series on MON cells (5 μM, Table 6), 8.22%; in the series on MON cells (10 μM, Table 5), 9.27%; in the series on MON cells (10 μM, Table 6), 9.27%. For the same compound, in the series on Cyclin D1, the “Repression of Cyclin D1” value is “No”. In addition, the “down modulation of Cyclin D1 (in words)” value in the series with Cyclin D1 (rhabdoid tumor cells) is recorded as “unable to down modulate Cyclin D1”.

Take `CC1=C(/C=C/C(C)=C/C=C/C(C)=C/C(=O)Nc2ccc(Cl)cc2)C(C)(C)CCC1` [5(b), (2E,4E,6E,8E)-[3,7-Dimethyl-9-(2,6,6-trimethyl-1-cyclohexenyl)-nona-2,4,6,8-tetraenoylamino]-(4-chloro)phenylamide]: the IC50 is more than 200 µM in series [1] (setting [3]) and not below 150 µM in series [1] (setting [4]).

Turning to “(2E,4E,6E,8E)-[3,7-Dimethyl-9-(2,6,6-trimethyl-1-cyclohexenyl)-nona-2,4,6-tetraenoylamino]-(4-alcohol)phenylamide [5(l)]”, in series [1] (setting [6]), the IC50 turned out to be 25 µM. For the same compound, the “cytotoxic activity” value in series [1] is “lack of activity”.

“(2E,4E,6E,8E)-[3,7-Dimethyl-9-(2,6,6-trimethyl-1-cyclohexenyl)-nona-2,4,6,8-tetraenoylamino]-(4-ethylalcohol)phenylamide [5(m)]”: in series [1] (setting [6]), the IC50 is more than 50 µM. Also, the “cytotoxic activity” value in series [1] is “lack of activity”.

Turning to `CC1=C(/C=C/C(C)=C/C=C/C(C)=C/C(=O)Nc2ccc(O)c(I)c2)C(C)(C)CCC1` [5(j), (2E,4E,6E,8E)-[3,7-Dimethyl-9-(2,6,6-trimethyl-1-cyclohexenyl)-nona-2,4,6,8-tetraenoylamino]-(3-Iodo, 4-hydroxy)phenylamide], the IC50 in series [1] (setting [3]) is 3 µM; in series [1] (setting [4]), approximately 3 µM; in series [1] (setting [5]), 3 µM; in series [2], 0.8 µM. The “cytotoxic activity” value in series [1] was “more active when compared to parent Fenretinide”. For the same compound, the “% G1” value amounted to 86.11% in the series with MON cells (5 μM, Table 5) and 87.97% with MON cells (10 μM, Table 5). Also, the “% G2” value in the series with MON cells (5 μM, Table 5) came out at 7.83%; in the series on MON cells (10 μM, Table 5) it was 6.87%. Also, the “% S” value was 6.06% in the series on MON cells (5 μM, Table 5) and 5.16% in the series on MON cells (10 μM, Table 5). Also, the “SubG1 (percentage of MON cells at sub-G1)” value with MON cells (5 μM, Table 5) was 26.48%; in the series on MON cells (10 μM, Table 5), 34.21%. Further, the “Repression of Cyclin D1” value in the series with Cyclin D1 is reported as “Yes”.

Turning to “(2E,4E,6E,8E)-[3,7-Dimethyl-9-(2,6,6-trimethyl-1-cyclohexenyl)-nona-2,4,6,8-tetraenoylamino]-(4-nitro)phenylamide [5(e)]”, the IC50 in series [1] (setting [6]) and in series [1] (setting [4]) was more than 200 µM each time.

As for `CCC1=C(C)/C(=C/c2ccc(C(=O)O)cc2)CCC1(C)C` [Compound 8], the IC50 in series [1] (MON cells, nonlinear regression, sigmoidal dose response, read-out: Relative IC50) was more than 50 µM; in series [1] (setting [4]), more than 50 µM.

Take `CC1=C(/C=C/C(C)=C/C=C/C(C)=C/C(=O)Nc2ccc(F)cc2)C(C)(C)CCC1` [5(a)]: the IC50 in series [1] (setting [3]) is 150 µM; in series [1] (setting [4]), not below 150 µM; in series [1] (setting [5]), more than 50 µM; in series [2], more than 15 µM. Also, the “% G1” value with MON cells (5 μM, Table 5) is given as 78.56%; with MON cells (10 μM, Table 5), 65.50%. For the same compound, the “% G2” value in the series with MON cells (5 μM, Table 5) was determined as 14.61%; in the series with MON cells (10 μM, Table 5), 27.25%. The “% S” value in the series with MON cells (5 μM, Table 5) is 6.84%; in the series on MON cells (10 μM, Table 5) it was 7.25%. The “SubG1 (percentage of MON cells at sub-G1)” value was 8.30% in the series on MON cells (5 μM, Table 5) and 9.44% in the series with MON cells (10 μM, Table 5).
